From US5196428A, “Imidazo[4,5-b]qinolinyl oxy alkyl ureas” (Bristol-Myers Squibb Company, priority 1992, dated 1993)
Values after ≈ are worked out from the molar mass of the structure shown. Counter-ions that a name gives are not always drawn. Like-named read-outs stand apart in the source and are kept apart here.

Tests used:
[1] = Aqueous solubility; assay type: physicochemical; conditions: water
[2] = system: human blood platelets in platelet-rich-plasma (ADP-induced aggregation); assay: In vitro inhibition of ADP-induced human platelet aggregation (aggregometer method of Born); assay type: cell-based
Description: The aggregometer method of Born, G. V. R., J. Physiol., (London), 162, 67-68, (1962) as modified by Mustard, J. F., et al., J. Lab. Clin. Med., 64, 548-599, (1964) was used to assess the in vitro activity of the various compounds as to the inhibition of adenosine diphosphate (ADP) and collagen-induced platelet aggregation. The human volunteer donor's arm is cleansed with 70% ethyl alcohol. A sterile 20 ml syringe and needle are used to withdraw 20 ml of blood. The blood is immediately added to a test tube containing 3.8% sodium citrate to prevent clotting (1 part citrate to 9 parts blood).
Platelet rich plasma (PRP) was separated by centrifugation for 10 minutes at 1000 rpm (140 g) from citrated (3.8%) human blood. All glassware used for preparation of PRP is silicon treated. ADP in final concentration of 0.5 mcg/mL or 0.05 mL of a collagen suspension prepared according to the method described by Evans, G., et al., J. Exp. Med., 128, 877-894, (1968) was used to induce aggregation. The various compounds tested were dissolved in dimethylsulfoxide (DMSO) so that 5 mcl added to the platelet rich plasma would yield the desired test concentration. Vehicle control trials were done and compared with aggregation induced in platelet rich plasma containing various concentrations of the test compounds. Dose response curves were obtained and Inhibitor Concentration (IC50) values calculated.
The target compounds were evaluated as inhibitors of ADP-induced aggregation of human blood platelets in platelet-rich-plasma (PRP) in vitro.

[3] = 0.05 h, ADP 0.5 mcg/mL, human PRP, standard protocol: about 3 minutes incubation prior to agonist, read-out: IC50 vs ADP in human PRP

SMILES	solubility [1]	IC50 [2, 3]	IC50 ([2]; Homo sapiens, incubation with PRP for about 15 minutes prior to adding ADP, read-out: observed IC50, ADP-induced aggregation)	IC50 ([2]; Homo sapiens, read-out: concentration providing 50% inhibition of ADP-induced aggregation, incubation with PRP for about 3 minutes prior to addition of the agonist)
CCOC(=O)NCCCOc1ccc2nc3[nH]c(=O)[nH]c3cc2c1 [Cmpd 7a]	< 10000 µg/mL	0.035 µg/mL (≈ 0.106 µM)		
CN(C(=O)NCCCOc1ccc2nc3[nH]c(=O)[nH]c3cc2c1)C1CCCCC1 [Cmpd 7b, N-Cyclohexyl-N'-[3-[(2,3-dihydro-2-oxo-1H-imidazo[4,5-b]quinolin-7-yl)oxy]propyl]-N-methylurea]	< 10000 µg/mL	0.04 µg/mL (≈ 0.101 µM)		
Cl.O=C(NCCCOc1ccc2nc3[nH]c(=O)[nH]c3cc2c1)NC1CCCCC1 [Cmpd 7c, N-Cyclohexyl-N'-[3-[(2,3-dihydro-2-oxo-1H-imidazo[4,5-b]quinolin-7-yl)oxy]propyl]urea hydrochloride]	< 10000 µg/mL	0.3 µg/mL		
O=C(NCCCOc1ccc2nc3[nH]c(=O)[nH]c3cc2c1)N1CCOCC1 [Cmpd 7d]	< 10000 µg/mL	1.2 µg/mL (≈ 3.23 µM)		
Cl.O=C(NCCCOc1ccc2nc3[nH]c(=O)[nH]c3cc2c1)N1CCC(Cc2ccccc2)CC1 [Cmpd 7e, N-[3-(2,3-dihydro-2-oxo-1H-imidazo[4,5-b]quinolin-7yloxy)propyl]-4-(phenylmethyl)-1-piperidinecarboxamide hydrochloride]	< 200 µg/mL	0.08 µg/mL		
Cl.Cl.O=C(NCCCOc1ccc2nc3[nH]c(=O)[nH]c3cc2c1)N1CCN(CC2CCCCC2)CC1 [Cmpd 7f, 4-(Cyclohexylmethyl)-N-[3-(2,3-dihydro-2-oxo-1H-imidazo[4,5-b]quinolin-7yloxy)propyl]-1-piperazinecarboxamide dihydrochloride]	> 20000 µg/mL	0.04 µg/mL		
O=C(NCCCOc1ccc2nc3[nH]c(=O)[nH]c3cc2c1)N1CCN(CC2CCCCCC2)CC1 [Cmpd 7g, 4-(Cycloheptylmethyl)-N-[3-(2.3-dihydro-2-oxo-1H-imidazo[4,5-b]quinolin-7yloxy)propyl]-1piperazinecarboxamide dihydrochloride]	2000 µg/mL	0.03 µg/mL		
Cl.Cl.O=C(NCCCOc1ccc2nc3[nH]c(=O)[nH]c3cc2c1)N1CCN(CC2CCCC2)CC1 [Cmpd 7h, 4-(Cyclopentylmethyl)-N-[3-(2,3-dihydro-2-oxo-1H-imidazo[4,5-b]quinolin-7yloxy)propyl]-1-piperazinecarboxamide dihydrochloride]	700 µg/mL	0.05 µg/mL		
Cl.Cl.O=C(NCCCOc1ccc2nc3[nH]c(=O)[nH]c3cc2c1)N1CCN(CCC2CCCCC2)CC1 [Cmpd 7i, 4-(Cyclohexylethyl)-N-[3-(2,3-dihydro-2-oxo-1H-imidazo [4,5-b]quinolin-7yloxy)propyl]-1-piperazinecarboxamide dihydrochloride]	500 µg/mL	0.04 µg/mL		
O=C(NCCCOc1ccc2nc3[nH]c(=O)[nH]c3cc2c1)N1CCN(CC2CCCCO2)CC1 (stereo not drawn) [Cmpd 7j, N-[3-(2,3-dihydro-2-oxo-1H-imidazo[4,5-b]quinolin-7yloxy)propyl-4-(tetrahydro-2H-pyran-2-yl)methyl]-1-piperazinecarboxamide dihydrochloride ethanol solvate]	> 20000 µg/mL	0.09 µg/mL		
CC(C)CN1CCN(C(=O)NCCCOc2ccc3nc4[nH]c(=O)[nH]c4cc3c2)CC1.Cl.Cl [Cmpd 7k, N-[3-(2,3-dihydro-2-oxo-1H-imidazo[4,5-b]quinolin-7yloxy)propyl]-4-(2-methylpropyl]-1-piperazinecarboxamide dihydrochloride]	> 20000 µg/mL	0.09 µg/mL		
CCC(CC)CN1CCN(C(=O)NCCCOc2ccc3nc4[nH]c(=O)[nH]c4cc3c2)CC1.Cl.Cl [Cmpd 7l, N-[3-(2,3-dihydro-2-oxo-1H-imidazo[4,5-b]quinolin-7yloxy)propyl]-4-(2-ethylbutyl)-1-piperazinecarboxamide dihydrochloride]	> 20000 µg/mL	0.022 µg/mL		
CCCC(CCC)CN1CCN(C(=O)NCCCOc2ccc3nc4[nH]c(=O)[nH]c4cc3c2)CC1.Cl.Cl [Cmpd 7m, N-[3-(2,3-dihydro-2-oxo-1H-imidazo[4,5-b]quinolin-7yloxy)propyl]-4-(2-propylpentyl]-1-piperazinecarboxamide dihydrochloride]	500 µg/mL	0.07 µg/mL		
O=C(NCCCOc1ccc2nc3[nH]c(=O)[nH]c3cc2c1)N1CCNCC1 [Cmpd 7n, N-[3-(2.3-dihydro-2-oxo-1H-imidazo4.5-b]quinolin-7yloxy)propyl]-1-piperazinecarboxamide dihydrochloride ethanol solvate]	< 500 µg/mL	3.8 µg/mL		
O=C(NCCCOc1ccc2nc3[nH]c(=O)[nH]c3cc2c1)N1CCN(Cc2ccccc2)CC1 [Cmpd 7o, N-[3-(2,3-dihydro-2-oxo-1H-imidazo[4,5-b]quinolin-7yloxy)propyl]-4-(phenylmethyl)-1-piperazinecarboxamide dihydrochloride ethanol solvate]	> 20000 µg/mL	0.18 µg/mL		
O=C(NCCCOc1ccc2nc3[nH]c(=O)[nH]c3cc2c1)N1CCN(Cc2ccc(Cl)cc2)CC1 [Cmpd 7p, N-[3-(2,3-dihydro-2-oxo-1H-imidazo[4,5-b]quinolin-7yloxy)propyl]-4-(4-chlorophenyl)methyl)-1-piperazine carboxamide dihydrochloride]	200 µg/mL	0.17 µg/mL		
O=C(NCCCOc1ccc2nc3[nH]c(=O)[nH]c3cc2c1)N1CCN(Cc2ccc(F)cc2)CC1 [Cmpd 7q, N-[3-(2,3-dihydro-2-oxo-1H-imidazo[4,5-b]quinolin-7yloxy)propyl]-4-[(4-fluorophenyl)methyl)-1-piperazine carboxamide dihydrochloride ethanol solvate]	> 20000 µg/mL	0.205 µg/mL		
O=C(NCCCOc1ccc2nc3[nH]c(=O)[nH]c3cc2c1)N1CCN(CCc2ccccc2)CC1 [Cmpd 7r, N-[3-(2,3-dihydro-2-oxo-1H-imidazo[4,5-b]quinolin-7yloxy)propyl]-4-[(2-phenylethyl)-1-piperazinecarboxamidedihydrochloride]	250 µg/mL	0.17 µg/mL		
O=C(NCCCOc1ccc2nc3[nH]c(=O)[nH]c3cc2c1)N1CCN(Cc2cccs2)CC1 [Cmpd 7s, N-[3-(2,3-dihydro-2-oxo-1H-imidazo[4,5-b]quinolin-7yloxy)propyl]-4-[(2-thienyl)methyl)-1-piperazinecarboxamide dihydrochloride ethanol solvate]	> 10000 µg/mL	0.09 µg/mL		
O=C(NCCCOc1ccc2nc3[nH]c(=O)[nH]c3cc2c1)N1CCN(Cc2ccsc2)CC1 [Cmpd 7t, N-3-(2,3-dihydro-2-oxo-1H-imidazo[4,5-b]quinolin-7yloxy)propyl]-4-[(3-thienyl)methyl)-1-piperazinecarboxamide dihydrochloride]	3000 µg/mL	0.15 µg/mL		
Cl.Cl.O=C(NCCCOc1ccc2nc3[nH]c(=O)[nH]c3cc2c1)N1CCC(N2CCCCC2)CC1 [Cmpd 7u, N-[3-(2,3-dihydro-2-oxo-1H-imidazo[4,5-b]quinolin-7yloxy)propyl]-4-(1-piperidinyl)-1-piperidinecarboxamide dihydrochloride]	> 20000 µg/mL	5.2 µg/mL		
Cl.Cl.O=C(NCCCOc1ccc2nc3[nH]c(=O)[nH]c3cc2c1)N1CCN(c2ncccn2)CC1 [Cmpd 7v, N-[3-(2,3-dihydro-2-oxo-1H-imidazo[4,5-b]quinolin-7yloxy)propyl]-4-(2-pyrimidinyl)-1-piperazinecarboxamide dihydrochloride]	100 µg/mL	0.17 µg/mL		
O=C(NCCCOc1ccc2nc3[nH]c(=O)[nH]c3cc2c1)N1CCN(c2ccccn2)CC1 [Cmpd 7w, N-[3-(2,3-dihydro-2-oxo-1H-imidazo[4,5-b]quinolin-7yloxy)propyl]-4-(2-pyridyl)-1-piperazinecarboxamide dihydrochloride ethanol solvate]	500 µg/mL	0.38 µg/mL		
O=C(CCCOc1ccc2nc3[nH]c(=O)[nH]c3cc2c1)N1CCN(CC2CCCCC2)CC1 [formula (3) compound, reference compound]			0.041 µg/mL	0.182 µg/mL
